{"source": "the NIST ThermoML archive (doi:10.1021/je8007167)", "conditions": "Crystal, Torsion effusion method", "note": "“And” between values parts separate entries of the source, which are not always exact repeats. Equal entries are not always repeated. Numbers after ± are expanded uncertainties.", "data": [{"smiles": "[F][Al]([F])[F]", "note": "[aluminum fluoride]", "values": [{"measurement": "vapor or sublimation pressure", "setting": "956 K", "result": "0.000105 ± 3.5e-05", "unit": "kPa"}, {"measurement": "vapor or sublimation pressure", "setting": "960 K", "result": "0.000132 ± 3.9e-05", "unit": "kPa"}, {"measurement": "vapor or sublimation pressure", "setting": "968 K", "result": "0.000209 ± 2.5e-05", "unit": "kPa"}, {"measurement": "vapor or sublimation pressure", "setting": "970 K", "result": "0.000209 ± 2.4e-05", "unit": "kPa"}, {"measurement": "vapor or sublimation pressure", "setting": "974 K", "result": "0.000209 ± 3.3e-05", "unit": "kPa"}, {"measurement": "vapor or sublimation pressure", "setting": "975 K", "result": "0.000209 ± 3.9e-05", "unit": "kPa"}, {"measurement": "vapor or sublimation pressure", "setting": "977 K", "result": "0.000263 ± 3.8e-05", "unit": "kPa"}, {"measurement": "vapor or sublimation pressure", "setting": "982 K", "result": "0.000316 ± 4.3e-05", "unit": "kPa"}, {"measurement": "vapor or sublimation pressure", "setting": "985 K", "result": "0.000363 ± 4.8e-05", "unit": "kPa"}, {"measurement": "vapor or sublimation pressure", "setting": "987 K", "result": "0.000363 ± 5.4e-05", "unit": "kPa"}, {"measurement": "vapor or sublimation pressure", "setting": "991 K", "result": "0.000417 ± 6.9e-05 kPa and 0.000468 ± 6.9e-05 kPa"}, {"measurement": "vapor or sublimation pressure", "setting": "994 K", "result": "0.000468 ± 8e-05", "unit": "kPa"}, {"measurement": "vapor or sublimation pressure", "setting": "998 K", "result": "0.000575 ± 8.2e-05", "unit": "kPa"}, {"measurement": "vapor or sublimation pressure", "setting": "1001 K", "result": "0.000631 ± 8.5e-05", "unit": "kPa"}, {"measurement": "vapor or sublimation pressure", "setting": "1002 K", "result": "0.000676 ± 8.8e-05", "unit": "kPa"}, {"measurement": "vapor or sublimation pressure", "setting": "1007 K", "result": "0.000724 ± 0.0001", "unit": "kPa"}, {"measurement": "vapor or sublimation pressure", "setting": "1010 K", "result": "0.000813 ± 0.00012", "unit": "kPa"}, {"measurement": "vapor or sublimation pressure", "setting": "1013 K", "result": "0.000933 ± 0.00015", "unit": "kPa"}, {"measurement": "vapor or sublimation pressure", "setting": "1014 K", "result": "0.000933 ± 0.00015", "unit": "kPa"}, {"measurement": "vapor or sublimation pressure", "setting": "1018 K", "result": "0.001122 ± 0.00014", "unit": "kPa"}, {"measurement": "vapor or sublimation pressure", "setting": "1022 K", "result": "0.001259 ± 0.00018", "unit": "kPa"}, {"measurement": "vapor or sublimation pressure", "setting": "1023 K", "result": "0.001259 ± 0.00017", "unit": "kPa"}, {"measurement": "vapor or sublimation pressure", "setting": "1026 K", "result": "0.001413 ± 0.0002", "unit": "kPa"}, {"measurement": "vapor or sublimation pressure", "setting": "1029 K", "result": "0.001549 ± 0.0002", "unit": "kPa"}, {"measurement": "vapor or sublimation pressure", "setting": "1033 K", "result": "0.00182 ± 0.00024", "unit": "kPa"}, {"measurement": "vapor or sublimation pressure", "setting": "1036 K", "result": "0.001862 ± 0.00029", "unit": "kPa"}, {"measurement": "vapor or sublimation pressure", "setting": "1040 K", "result": "0.002188 ± 0.00027", "unit": "kPa"}, {"measurement": "vapor or sublimation pressure", "setting": "1043 K", "result": "0.002512 ± 0.00033", "unit": "kPa"}, {"measurement": "vapor or sublimation pressure", "setting": "1048 K", "result": "0.002754 ± 0.00032", "unit": "kPa"}, {"measurement": "vapor or sublimation pressure", "setting": "1052 K", "result": "0.003162 ± 0.00038 kPa and 0.003236 ± 0.00038 kPa"}, {"measurement": "vapor or sublimation pressure", "setting": "1053 K", "result": "0.003236 ± 0.00044", "unit": "kPa"}, {"measurement": "vapor or sublimation pressure", "setting": "1059 K", "result": "0.00389 ± 0.00058", "unit": "kPa"}, {"measurement": "vapor or sublimation pressure", "setting": "1062 K", "result": "0.004467 ± 0.00055", "unit": "kPa"}, {"measurement": "vapor or sublimation pressure", "setting": "1063 K", "result": "0.004365 ± 0.00054", "unit": "kPa"}, {"measurement": "vapor or sublimation pressure", "setting": "1066 K", "result": "0.005012 ± 0.00067", "unit": "kPa"}, {"measurement": "vapor or sublimation pressure", "setting": "1070 K", "result": "0.00537 ± 0.00073", "unit": "kPa"}, {"measurement": "vapor or sublimation pressure", "setting": "1071 K", "result": "0.005754 ± 0.0007", "unit": "kPa"}, {"measurement": "vapor or sublimation pressure", "setting": "1074 K", "result": "0.00631 ± 0.0008", "unit": "kPa"}, {"measurement": "vapor or sublimation pressure", "setting": "1078 K", "result": "0.006918 ± 0.00086", "unit": "kPa"}, {"measurement": "vapor or sublimation pressure", "setting": "1083 K", "result": "0.008128 ± 0.00097 kPa and 0.008318 ± 0.00097 kPa"}, {"measurement": "vapor or sublimation pressure", "setting": "1086 K", "result": "0.008913 ± 0.0011", "unit": "kPa"}, {"measurement": "vapor or sublimation pressure", "setting": "1089 K", "result": "0.009333 ± 0.0013", "unit": "kPa"}, {"measurement": "vapor or sublimation pressure", "setting": "1093 K", "result": "0.01072 ± 0.0012", "unit": "kPa"}, {"measurement": "vapor or sublimation pressure", "setting": "1097 K", "result": "0.0123 ± 0.0016", "unit": "kPa"}, {"measurement": "vapor or sublimation pressure", "setting": "1098 K", "result": "0.01202 ± 0.0016", "unit": "kPa"}, {"measurement": "vapor or sublimation pressure", "setting": "1100 K", "result": "0.01288 ± 0.0015", "unit": "kPa"}, {"measurement": "vapor or sublimation pressure", "setting": "1104 K", "result": "0.01479 ± 0.0019", "unit": "kPa"}, {"measurement": "vapor or sublimation pressure", "setting": "1107 K", "result": "0.01549 ± 0.0019", "unit": "kPa"}, {"measurement": "vapor or sublimation pressure", "setting": "1109 K", "result": "0.01698 ± 0.0019", "unit": "kPa"}, {"measurement": "vapor or sublimation pressure", "setting": "1112 K", "result": "0.0182 ± 0.0024", "unit": "kPa"}, {"measurement": "vapor or sublimation pressure", "setting": "1113 K", "result": "0.01862 ± 0.0023", "unit": "kPa"}]}, {"smiles": "[Cl][Al]([Cl])[Cl]", "note": "[aluminum chloride]", "values": [{"measurement": "vapor or sublimation pressure", "setting": "321 K", "result": "0.00017 ± 7.1e-05", "unit": "kPa"}, {"measurement": "vapor or sublimation pressure", "setting": "323 K", "result": "0.000234 ± 7.4e-05", "unit": "kPa"}, {"measurement": "vapor or sublimation pressure", "setting": "327 K", "result": "0.00038 ± 9.1e-05", "unit": "kPa"}, {"measurement": "vapor or sublimation pressure", "setting": "329 K", "result": "0.000525 ± 9.3e-05 kPa and 0.000513 ± 9.2e-05 kPa"}, {"measurement": "vapor or sublimation pressure", "setting": "330 K", "result": "0.00055 ± 0.0001", "unit": "kPa"}, {"measurement": "vapor or sublimation pressure", "setting": "333 K", "result": "0.000676 ± 0.00016", "unit": "kPa"}, {"measurement": "vapor or sublimation pressure", "setting": "334 K", "result": "0.000891 ± 0.00027", "unit": "kPa"}, {"measurement": "vapor or sublimation pressure", "setting": "336 K", "result": "0.001023 ± 0.00032", "unit": "kPa"}, {"measurement": "vapor or sublimation pressure", "setting": "338 K", "result": "0.001622 ± 0.0004", "unit": "kPa"}, {"measurement": "vapor or sublimation pressure", "setting": "339 K", "result": "0.001622 ± 0.00048 kPa and 0.001585 ± 0.00048 kPa"}, {"measurement": "vapor or sublimation pressure", "setting": "340 K", "result": "0.002089 ± 0.00056 kPa and 0.001862 ± 0.00055 kPa"}, {"measurement": "vapor or sublimation pressure", "setting": "342 K", "result": "0.002455 ± 0.00068", "unit": "kPa"}, {"measurement": "vapor or sublimation pressure", "setting": "343 K", "result": "0.002951 ± 0.00065", "unit": "kPa"}, {"measurement": "vapor or sublimation pressure", "setting": "344 K", "result": "0.003388 ± 0.00081", "unit": "kPa"}, {"measurement": "vapor or sublimation pressure", "setting": "345 K", "result": "0.003631 ± 0.0008 kPa and 0.003715 ± 0.0008 kPa"}, {"measurement": "vapor or sublimation pressure", "setting": "346 K", "result": "0.003981 ± 0.0011", "unit": "kPa"}, {"measurement": "vapor or sublimation pressure", "setting": "347 K", "result": "0.004898 ± 0.0012 kPa and 0.004266 ± 0.0011 kPa"}, {"measurement": "vapor or sublimation pressure", "setting": "348 K", "result": "0.004786 ± 0.0011 kPa and 0.00537 ± 0.0011 kPa"}, {"measurement": "vapor or sublimation pressure", "setting": "349 K", "result": "0.00631 ± 0.0015", "unit": "kPa"}, {"measurement": "vapor or sublimation pressure", "setting": "350 K", "result": "0.006761 ± 0.0012", "unit": "kPa"}, {"measurement": "vapor or sublimation pressure", "setting": "351 K", "result": "0.006761 ± 0.002 kPa and 0.006457 ± 0.002 kPa"}, {"measurement": "vapor or sublimation pressure", "setting": "352 K", "result": "0.008318 ± 0.0019", "unit": "kPa"}, {"measurement": "vapor or sublimation pressure", "setting": "353 K", "result": "0.008318 ± 0.0017 kPa and 0.008913 ± 0.0017 kPa"}, {"measurement": "vapor or sublimation pressure", "setting": "354 K", "result": "0.01072 ± 0.0022 kPa and 0.00912 ± 0.0023 kPa"}, {"measurement": "vapor or sublimation pressure", "setting": "355 K", "result": "0.01202 ± 0.0021 kPa and 0.01175 ± 0.0021 kPa"}, {"measurement": "vapor or sublimation pressure", "setting": "356 K", "result": "0.01175 ± 0.0036", "unit": "kPa"}, {"measurement": "vapor or sublimation pressure", "setting": "358 K", "result": "0.01445 ± 0.0036 kPa and 0.01585 ± 0.0035 kPa"}, {"measurement": "vapor or sublimation pressure", "setting": "362 K", "result": "0.02399 ± 0.0058", "unit": "kPa"}, {"measurement": "vapor or sublimation pressure", "setting": "363 K", "result": "0.0263 ± 0.0057", "unit": "kPa"}, {"measurement": "vapor or sublimation pressure", "setting": "366 K", "result": "0.03715 ± 0.0084", "unit": "kPa"}, {"measurement": "vapor or sublimation pressure", "setting": "368.5 K", "result": "0.04898 ± 0.011", "unit": "kPa"}, {"measurement": "vapor or sublimation pressure", "setting": "369 K", "result": "0.05129 ± 0.011", "unit": "kPa"}, {"measurement": "vapor or sublimation pressure", "setting": "372 K", "result": "0.06918 ± 0.018", "unit": "kPa"}, {"measurement": "vapor or sublimation pressure", "setting": "373 K", "result": "0.08511 ± 0.018", "unit": "kPa"}, {"measurement": "vapor or sublimation pressure", "setting": "376.5 K", "result": "0.1175 ± 0.019", "unit": "kPa"}, {"measurement": "vapor or sublimation pressure", "setting": "378 K", "result": "0.1288 ± 0.019", "unit": "kPa"}]}]}
